In patent US4622387A, “8-methionine calcitonin” (Armour Pharmaceutical Co., priority 1985, dated 1986):
Where a SMILES comes first, the peptide text is derived from it. Bridges are numbered along the chain shown (N, C = ends).

Columns and labels:
[1] = test system: serum calcium concentration
Protocol: Biological Assay Of Calcitonin Analogs In Vivo
The biological potency of [8-methionine]salmon calcitonin was determined by comparing the reduction of serum calcium concentration which followed administration by graded doses of [Met^8 ]SCT and synthetic salmon calcitonin standard. Rats were divided into four groups of seven animals, and each group was assigned at random to a dose of standard or test solution. Low and high doses were chosen from the linear portion of the dose-response curve. For the salmon calcitonin standard, the values were 0.7 and 2.1 mcg. peptide/100 g. body weight (BW). This dose approximates 3 and 9 MU/100 g. BW. Peptides were given by subcutaneous injection (0.2 ml/100 g. BW) and blood was withdrawn 1 hour later for serum calcium determination. Sera are processed and analyzed within two hours of collection. Results were analyzed within two hours of collection.

[2] = test system: serum calcium (hypocalcemic potency); details: Monikawa et al., Experientia 32(9), 1104-1106 (1976); cited from earlier work

Compound | hypocalcemic potency [2] | also measured
CSCC[C@H](NC(=O)[C@@H]1CSSC[C@H](N)C(=O)N[C@@H](CO)C(=O)N[C@@H](CC(N)=O)C(=O)N[C@@H](CC(C)C)C(=O)N[C@@H](CO)C(=O)N[C@@H]([C@@H](C)O)C(=O)N1)C(=O)N[C@@H](CC(C)C)C(=O)NCC(=O)N[C@@H](CCCCN)C(=O)N[C@@H](CC(C)C)C(=O)N[C@@H](CO)C(=O)N[C@@H](CCC(N)=O)C(=O)N[C@@H](CCC(=O)O)C(=O)N[C@@H](CC(C)C)C(=O)N[C@@H](Cc1c[nH]cn1)C(=O)N[C@@H](CCCCN)C(=O)N[C@@H](CC(C)C)C(=O)N[C@@H](CCC(N)=O)C(=O)N[C@H](C(=O)N[C@@H](Cc1ccc(O)cc1)C(=O)N1CCC[C@H]1C(=O)N[C@@H](CCCNC(=N)N)C(=O)N[C@H](C(=O)N[C@@H](CC(N)=O)C(=O)N[C@H](C(=O)NCC(=O)N[C@@H](CO)C(=O)NCC(=O)N[C@H](C(=O)N1CCC[C@H]1C(N)=O)[C@@H](C)O)[C@@H](C)O)[C@@H](C)O)[C@@H](C)O [[Met^8]SCT, [8-methionine]salmon calcitonin] (H-CSNLSTCMLGKLSQELHKLQTYPRTNTGSGTP-NH2; disulfide 1-7) |  | biological potency ([1]; rat, in vivo, sc): 5500 IU/mg
(1,7-α-L-aminosuberic acid)eel calcitonin | about 3400 Iu/mg | 
CC(C)C[C@H](NC(=O)[C@H](CCCCN)NC(=O)CNC(=O)[C@H](CC(C)C)NC(=O)[C@@H](NC(=O)[C@@H]1CSSC[C@H](N)C(=O)N[C@@H](CO)C(=O)N[C@@H](CC(N)=O)C(=O)N[C@@H](CC(C)C)C(=O)N[C@@H](CO)C(=O)N[C@@H]([C@@H](C)O)C(=O)N1)C(C)C)C(=O)N[C@@H](CO)C(=O)N[C@@H](CCC(N)=O)C(=O)N[C@@H](CCC(=O)O)C(=O)N[C@@H](CC(C)C)C(=O)N[C@@H](Cc1c[nH]cn1)C(=O)N[C@@H](CCCCN)C(=O)N[C@@H](CC(C)C)C(=O)N[C@@H](CCC(N)=O)C(=O)N[C@H](C(=O)N[C@@H](Cc1ccc(O)cc1)C(=O)N1CCC[C@H]1C(=O)N[C@@H](CCCNC(=N)N)C(=O)N[C@H](C(=O)N[C@@H](CC(N)=O)C(=O)N[C@H](C(=O)NCC(=O)N[C@@H](CO)C(=O)NCC(=O)N[C@H](C(=O)N1CCC[C@H]1C(N)=O)[C@@H](C)O)[C@@H](C)O)[C@@H](C)O)[C@@H](C)O [standard salmon calcitonin, Salmon calcitonin] |  | potency content of the standard ([1]; standard salmon calcitonin, independently determined): greater than 4,000 IU/mg
eel calcitonin [synthetic eel calcitonin] | around 4300 Iu/mg | 
